In ChEMBL document CHEMBL4145493, “Tetrahydroacridine derivatives with dichloronicotinic acid moiety as attractive, multipotent agents for Alzheimer's disease treatment” (Eur J Med Chem, 2018):

Key:
Cholinesterase = Cholinesterase (Equus caballus, UniProt P81908); experiment: Inhibition of equine serum BuChE using acetylthiocholine iodide as substrate after 8 mins by Ellman's method
Acetylcholinesterase = Acetylcholinesterase (Electrophorus electricus, UniProt O42275); experiment: Inhibition of electric eel AChE using acetylthiocholine iodide as substrate after 10 mins by Ellman's method
BuChE (equine serum) = experiment: Selectivity index, ratio of IC50 for human A549 cells to IC50 for equine serum BuChE; format: toxicity; details: read-out: Ratio IC50
[1] = Cytotoxicity against human A549 cells assessed as cell viability at 2.3 uM after 48 hrs by MTT assay relative to control; format: cell-based; details: read-out: Activity
[2] = target: Amyloid-beta precursor protein (Homo sapiens) (UniProt P05067); experiment: Inhibition of self-induced amyloid beta (1 to 42) (unknown origin) aggregation at 50 uM measured after 24 hrs by ThT fluorescence assay relative to control
[3] = target: Amyloid-beta precursor protein (Homo sapiens) (UniProt P05067); experiment: Inhibition of self-induced amyloid beta (1 to 42) (unknown origin) aggregation at 5 uM measured after 24 hrs by ThT fluorescence assay relative to control
AChE (electric eel) = experiment: Selectivity index, ratio of IC50 for human A549 cells to IC50 for electric eel AChE; format: toxicity; details: read-out: Ratio IC50
[4] = target: Amyloid-beta precursor protein (Homo sapiens) (UniProt P05067); experiment: Inhibition of self-induced amyloid beta (1 to 42) (unknown origin) aggregation at 25 uM measured after 24 hrs by ThT fluorescence assay relative to control
[5] = Cytotoxicity against human A549 cells assessed as cell viability at 0.9 uM after 48 hrs by MTT assay relative to control; format: cell-based; details: read-out: Activity
A549 = experiment: Cytotoxicity against human A549 cells assessed as cell viability after 48 hrs by MTT assay; format: cell-based; details: A549, 48 h
Hyaluronidase = target: T1, Hyaluronidase (Bos taurus, UniProt Q8SQG8+Q5E985); experiment: Inhibition of bovine testes hyaluronidase using hyaluronic acid as substrate preincubated for 10 mins in dark followed by incubation with substrate for 45 mins and subsequent addition of serum albumin measured after 10 mins by turbidimetric method; format: protein assay
T1 sequence (Q8SQG8 whole entry): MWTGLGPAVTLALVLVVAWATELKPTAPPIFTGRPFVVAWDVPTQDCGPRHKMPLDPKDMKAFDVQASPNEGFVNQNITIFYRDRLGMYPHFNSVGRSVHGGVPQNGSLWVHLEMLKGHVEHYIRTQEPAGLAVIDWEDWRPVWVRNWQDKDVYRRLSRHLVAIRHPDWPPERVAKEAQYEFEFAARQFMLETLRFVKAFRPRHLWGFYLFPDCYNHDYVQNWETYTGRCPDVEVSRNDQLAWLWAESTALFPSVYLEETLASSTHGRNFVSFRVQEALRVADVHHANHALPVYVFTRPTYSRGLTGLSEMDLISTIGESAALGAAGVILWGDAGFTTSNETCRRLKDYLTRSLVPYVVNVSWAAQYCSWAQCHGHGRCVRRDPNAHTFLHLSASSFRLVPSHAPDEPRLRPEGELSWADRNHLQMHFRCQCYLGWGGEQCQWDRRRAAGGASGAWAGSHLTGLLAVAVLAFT
T1 sequence (Q5E985 whole entry): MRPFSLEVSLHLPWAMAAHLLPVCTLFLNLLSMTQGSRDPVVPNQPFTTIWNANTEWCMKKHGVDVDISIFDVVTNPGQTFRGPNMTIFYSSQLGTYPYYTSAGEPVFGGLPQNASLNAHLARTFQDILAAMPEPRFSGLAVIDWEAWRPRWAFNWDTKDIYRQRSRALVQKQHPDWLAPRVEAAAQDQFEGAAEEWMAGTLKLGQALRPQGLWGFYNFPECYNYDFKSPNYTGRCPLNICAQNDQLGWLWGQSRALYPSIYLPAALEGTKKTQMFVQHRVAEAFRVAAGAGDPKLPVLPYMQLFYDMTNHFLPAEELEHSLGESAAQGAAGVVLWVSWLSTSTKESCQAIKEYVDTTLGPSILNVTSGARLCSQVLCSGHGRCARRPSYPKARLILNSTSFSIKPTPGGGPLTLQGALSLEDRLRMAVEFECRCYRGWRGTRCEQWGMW

[6] = target: Amyloid-beta precursor protein (Homo sapiens) (UniProt P05067); experiment: Inhibition of self-induced amyloid beta (1 to 42) (unknown origin) aggregation at 10 uM measured after 24 hrs by ThT fluorescence assay relative to control

Acetylcholinesterase, sequence (O42275 whole entry): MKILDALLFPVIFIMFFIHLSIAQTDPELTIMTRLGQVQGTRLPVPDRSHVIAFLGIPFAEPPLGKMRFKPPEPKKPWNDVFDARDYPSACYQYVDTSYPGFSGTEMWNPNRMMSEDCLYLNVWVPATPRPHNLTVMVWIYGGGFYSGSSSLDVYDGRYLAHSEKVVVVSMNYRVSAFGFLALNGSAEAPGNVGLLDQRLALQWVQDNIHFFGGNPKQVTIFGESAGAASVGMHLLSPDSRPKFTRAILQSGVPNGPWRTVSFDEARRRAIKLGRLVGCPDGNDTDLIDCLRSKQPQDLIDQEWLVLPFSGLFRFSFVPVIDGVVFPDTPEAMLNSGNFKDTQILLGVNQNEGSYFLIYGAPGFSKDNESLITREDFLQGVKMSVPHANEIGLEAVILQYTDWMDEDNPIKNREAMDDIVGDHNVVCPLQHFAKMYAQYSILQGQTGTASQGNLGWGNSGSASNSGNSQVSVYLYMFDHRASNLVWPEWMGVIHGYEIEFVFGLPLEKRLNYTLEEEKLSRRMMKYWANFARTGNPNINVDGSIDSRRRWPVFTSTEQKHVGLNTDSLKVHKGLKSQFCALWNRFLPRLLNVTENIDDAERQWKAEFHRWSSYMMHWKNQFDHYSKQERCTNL
Cholinesterase, sequence (P81908 whole entry): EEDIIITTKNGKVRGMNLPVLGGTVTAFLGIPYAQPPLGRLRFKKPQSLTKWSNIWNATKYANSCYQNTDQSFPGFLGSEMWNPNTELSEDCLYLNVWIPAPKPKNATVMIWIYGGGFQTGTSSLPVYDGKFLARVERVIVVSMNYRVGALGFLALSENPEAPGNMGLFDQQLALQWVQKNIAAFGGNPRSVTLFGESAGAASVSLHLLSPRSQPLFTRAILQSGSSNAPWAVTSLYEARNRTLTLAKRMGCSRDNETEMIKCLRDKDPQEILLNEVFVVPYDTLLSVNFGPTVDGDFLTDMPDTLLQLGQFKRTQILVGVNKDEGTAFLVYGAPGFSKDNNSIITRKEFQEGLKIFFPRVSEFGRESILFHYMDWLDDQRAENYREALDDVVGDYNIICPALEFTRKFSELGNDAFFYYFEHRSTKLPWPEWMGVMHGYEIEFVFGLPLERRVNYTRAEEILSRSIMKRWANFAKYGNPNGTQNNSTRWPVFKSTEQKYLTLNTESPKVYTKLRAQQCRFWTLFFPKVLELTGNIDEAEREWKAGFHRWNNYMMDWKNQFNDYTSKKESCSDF
Amyloid-beta precursor protein (Homo sapiens), sequence (P05067 whole entry): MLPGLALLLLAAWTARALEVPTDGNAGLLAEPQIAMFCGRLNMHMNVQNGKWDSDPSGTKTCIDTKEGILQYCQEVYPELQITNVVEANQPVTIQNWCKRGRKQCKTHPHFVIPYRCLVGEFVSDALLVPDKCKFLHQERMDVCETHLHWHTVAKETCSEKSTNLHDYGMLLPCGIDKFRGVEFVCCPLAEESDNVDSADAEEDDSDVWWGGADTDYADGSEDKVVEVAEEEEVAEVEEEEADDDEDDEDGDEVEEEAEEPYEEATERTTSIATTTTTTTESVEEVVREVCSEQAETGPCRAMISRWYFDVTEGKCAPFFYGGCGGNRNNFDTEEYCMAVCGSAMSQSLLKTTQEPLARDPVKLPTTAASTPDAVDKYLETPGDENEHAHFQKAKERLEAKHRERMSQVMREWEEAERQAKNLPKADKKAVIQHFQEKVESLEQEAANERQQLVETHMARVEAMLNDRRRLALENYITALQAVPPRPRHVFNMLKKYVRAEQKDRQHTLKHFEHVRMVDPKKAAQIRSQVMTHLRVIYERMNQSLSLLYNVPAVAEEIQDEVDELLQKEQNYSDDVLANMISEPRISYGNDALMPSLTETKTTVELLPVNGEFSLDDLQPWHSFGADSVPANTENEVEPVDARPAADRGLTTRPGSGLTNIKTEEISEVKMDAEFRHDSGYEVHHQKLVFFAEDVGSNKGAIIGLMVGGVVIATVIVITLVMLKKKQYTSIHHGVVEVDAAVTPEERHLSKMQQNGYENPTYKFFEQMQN

Structure (SMILES) | IC50 (Cholinesterase) | IC50 (Acetylcholinesterase) | also measured
O=C(NCCNc1c2c(nc3ccccc13)CCCC2)c1cnc(Cl)c(Cl)c1 | 726 nM | 16.7 nM | –
O=C(NCCCCCCCCCNc1c2c(nc3ccccc13)CCCC2)c1cnc(Cl)c(Cl)c1 | 3.33 nM | 3.12 nM | –
O=C(NCCCCCCNc1c2c(nc3ccccc13)CCCC2)c1cnc(Cl)c(Cl)c1 | 12.9 nM | 4.2 nM | –
O=C(NCCCCCNc1c2c(nc3ccccc13)CCCC2)c1cnc(Cl)c(Cl)c1 | 13.5 nM | 2.9 nM | –
Cl.O=C(NCCCNc1c2c(nc3ccccc13)CCCC2)c1cnc(Cl)c(Cl)c1 | 160 nM | 1.02 nM | selectivity ratio (BuChE (equine serum)): 13; viability at 48 h, 2.3 µM [1]: 46%; inhibition [2]: 46.6%; inhibition [3]: 19.4%; selectivity ratio (AChE (electric eel)): 1960; inhibition [4]: 31.1%; viability at 48 h, 0.9 µM [5]: 82.3%; IC50 (A549): 2000 nM; IC50 (Hyaluronidase): 465.75 µM; inhibition [6]: 26.6%
O=C(NCCCCCCCCNc1c2c(nc3ccccc13)CCCC2)c1cnc(Cl)c(Cl)c1 | 10.7 nM | 10.3 nM | –
O=C(NCCCCCCCNc1c2c(nc3ccccc13)CCCC2)c1cnc(Cl)c(Cl)c1 | 11.4 nM | 12.3 nM | –
O=C(NCCCCNc1c2c(nc3ccccc13)CCCC2)c1cnc(Cl)c(Cl)c1 | 41.4 nM | 1.65 nM | –
